# Experimental data: patent US20030138394A1, “Cosmetic and/or pharmaceutical preparations that contain an extract of the plant argania spinosa” (priority 2000, published 2003)
# System: human adipocytes
# Assay: Lipolysis activity on human adipocytes (released glycerol)
# Format: cell-based
# Settings: 30 mM; 90 minutes at 37° C.; reference medium = 0
# Procedure: Method: The adipocytes were isolated from human subcutaneous tissue, as corresponds to the general technique in accordance with Rodbell. The extract as in
# Example 1 or the comparison substances are dissolved in the reference medium and then brought into contact with the isolated adipocytes for 90 minutes at 37° C. In each case one adipocyte preparations [sic] was analyzed. The percentage increase in released glycerol in the supernatant of the medium was determined by means of spectrophotometry in accordance with the method by Carpéné et al. The reference administered was the medium without substance to be analyzed and was set equal to 0.
smiles,measurement,value
Cn1c(=O)c2c(ncn2C)n(C)c1=O [Caffeine],% increase in released glycerol,181%
